Measured values as given in patent publication US4859682A, “2-Halogenated-8- and 1,8-substituted ergolenes” (Richter Gedeon Vegyeszeti Gyar Rt., priority 1986, dated 1989).
Where a name gives a salt, the structure may show the parent alone.

Key:
[1] = Investigation of the cataleptogenic effect (catalepsy); type: in vivo, Hann-Wistar rats (male); conditions: rats; for ED50 at 5 h: rat, in vivo, po, hourly observed for 5 hours; for Catalepsy (percent): 60 mg/kg p.o.
Description: (§1) The investigations were carried out on Hann-Wistar (LATI=a Hungarian firm with the name "Institute for Breeding Laboratory Animals") rats and CFLP (LATI) mice. The compounds to be tested were orally administered in a volume of 5 ml/kg of body-weight (abbreviated: ml/kg) to rats and in a volume of 10 ml/kg to mice 60 minutes before starting the experiment.
(§2) The substances were suspended in a solution of Tween 80 of 0.5% strength and then diluted to the desired concentration with physiological saline solution.
(§3) The results are expressed as percentages or, alternatively the ED50 values together with the 95% fiducial limits are given as calculated by means of the probit analysis [J. T. Litschfield and F. Wilcoxon: J. Pharmacol. 96, 99 (1949)].
2. Investigation of the cataleptogenic effect
The method of G. Stile and H. Launer [Arzneim.-Forsch. 21, 252 (1971)] was used for this test.
Male rats weighing 90 to 110 g (n=6) were treated with different doses of the compounds to be tested, then the number of the animals showing catalepsy was hourly observed for 5 hours.

[2] = H. Watchel et al., Life Sci. 33, 2583; cited from earlier work
[3] = Investigation of the amphetamine group toxicity; type: in vivo, CFLP mice; conditions: d-amphetamine 21 mg/kg i.p., 24 hours, mice; for Amphetamine group tox. (percent): 30 mg/kg p.o.
Description: as §1, §2, §3
3. Investigation of the amphetamine group toxicity
The method of C. D. Proctor et al. [Arch. Int. Pharmacodyn. Ther. 163, 74 (1966)] was used for this test.
The examination was carried out on mice of both sexes weighing 22 to 27 g (n=5). At the 60th minute after administration of the compounds to be tested in a dose of 30 mg/kg, d-amphetamine in a dose of 21 mg/kg was intraperitoneally given to the animals tightly closed together (25 cm^2 /mouse) and the percentage of the perished animals was registered after 24 hours.

[4] = system: dopaminergic system; experiment: Investigation of the apomorphine hypothermia-reverting effect; type: in vivo, Hann-Wistar rats; conditions: 10 mg/kg p.o., apomorphine 5 mg/kg i.p., rats
Description: as §1, §2, §3
4. Investigation of the apomorphine hypothermia-reverting effect
The method of A. Barnett et al. [Arch. Int. Pharmacodyn. Ther. 198, 242 (1972)] was used for this test.
The rectal temperature of rats (n=5) was determined by using an Ellab thermometer before administering the compounds to be tested in a dose of 10 mg/kg. Thereafter, a dose of 5 mg/kg of apomorphine was intraperitoneally given and the temperature of the animals was hourly registered for 3 hours.
The significant apomorphine-antagonizing action (reversion of the hypothermia) of the compounds is a proof of inhibition of the dopaminergic system.

[5] = Investigation of the asphyxial anoxia; type: in vivo, CFLP mice; conditions: for ED50: Mus musculus, po, 1 h, survival time longer by 30% than control = protected; for ED50 / Asphyxial anoxia (percent): mice; for Asphyxial anoxia (percent): 50 mg/kg p.o.
Description: as §1, §2, §3
5. Investigation of the asphyxial anoxia
The method of C. Caillard et al. [Life Sci. 16, 1607 (1975)] was used for this test.
Mice (n=5) of both sexes weighing 22 to 24 g were starved for 16 hours, then treated with a 50 mg/kg dose of the compounds to be tested. After 60 minutes, the animals were placed in tightly closed glass bottles of 100 ml volume and the survival time was registered.

[6] = Inhibition of the conditioned avoidance response (CAR inhibition); type: in vivo, Hann-Wistar rats (male); conditions: rats; for ED50: Rattus norvegicus, po, 1 h, p.o., 60 min before test
Description: as §1, §2, §3
1. Inhibition of the conditioned avoidance response (CAR inhibition)
The method of D. Bovet et al. (in: Neuropsychopharmacology Vol. 2., p. 142 ed. Elsevier Publishing House, Amsterdam, 1961) was used for this test.
Male rats weighing 140 to 160 g were conditioned for 10 days in an automated six-channel shuttle box (VKI). Each one session consisted of 30 cycles; the time of the partial cycles was 15 seconds for intersignal time, 15 seconds for light stimulus, 10 seconds for light stimulus and footshock (0.8 mA). The selected animals (n=6; selected on the basis of a performance higher than 80% at the 10th day) were treated with a 20 mg/kg dose of the compounds to be tested before the 11th session and their performance (i.e. the mean of the number of the conditioned avoidance responses) was compared to the value obtained for each group at the previous day taken as control value.

CCN(CC)C(=O)NC1C=C2c3cccc4[nH]c(Br)c(c34)CC2N(C)C1 (stereo not drawn) [2-Bromolysuride, 2-bromolysuride, reference compound]
ED50 at 5 h [1]: 3.3 mg/kg | neuroleptic effect (in words) [2]: strong neuroleptic effect

CC(=O)OCC1C=C2c3cccc4c3c(c(Cl)n4C(C)=O)CC2N(C)C1 (stereo not drawn) [A, 1-Acetyl-8-acetyloxymethyl-2-chloro-6-methyl-9-ergolene]
ED50 ([3]; Mus musculus, po, read-out: Amphetamine group tox. ED50): 19.6 mg/kg | Apomorphine hypothermia, difference of temperature change vs. apomorphine alone, 60 min [4]: +1.3 °C | Apomorphine hypothermia, difference of temperature change vs. apomorphine alone, 120 min [4]: +1.3 °C | ED50 [5]: 34.8 mg/kg | ED50 at 5 h [1]: 46.5 mg/kg | ED50 [6]: 3.4 mg/kg

CC(=O)OCC1C=C2c3cccc4c3c(c(Cl)n4C=O)CC2N(C)C1 (stereo not drawn) [B, 8-acetyloxymethyl-2-chloro-1-formyl-6-methyl-9-ergolene hydrogen sulfate]
Amphetamine group tox. (percent) [3]: 10% | Apomorphine hypothermia, difference of temperature change vs. apomorphine alone, 60 min [4]: +2.0 °C | Apomorphine hypothermia, difference of temperature change vs. apomorphine alone, 120 min [4]: +2.4 °C | Asphyxial anoxia (percent) [5]: 20% | ED50 at 5 h [1]: 51.9 mg/kg | ED50 [6]: 3.7 mg/kg

CN1CC(CCl)C=C2c3cccc4c3c(c(Cl)n4C=O)CC21 (stereo not drawn) [C, 2-chloro-8-chloromethyl-1-formyl-6-methyl-9-ergolene]
Amphetamine group tox. (percent) [3]: 0% | Apomorphine hypothermia, difference of temperature change vs. apomorphine alone, 60 min [4]: +0.6 °C | Apomorphine hypothermia, difference of temperature change vs. apomorphine alone, 120 min [4]: +1.2 °C | Asphyxial anoxia (percent) [5]: 50% | Catalepsy (percent) [1]: 0% | ED50 [6]: 12.9 mg/kg

CC(=O)OCC1C=C2c3cccc4c3c(c(Br)n4C(C)=O)CC2N(C)C1 (stereo not drawn) [D, 1-acetyl-8-acetyloxymethyl-2-bromo-6-methyl-9-ergolene]
Amphetamine group tox. (percent) [3]: 0% | Apomorphine hypothermia, difference of temperature change vs. apomorphine alone, 60 min [4]: +0.9 °C | Apomorphine hypothermia, difference of temperature change vs. apomorphine alone, 120 min [4]: +1.7 °C | Asphyxial anoxia (percent) [5]: 50% | ED50 at 5 h [1]: 42.4 mg/kg | ED50 [6]: 4.6 mg/kg

CN1CC(CO)C=C2c3cccc4c3c(c(Cl)n4C)CC21 (stereo not drawn) [E, 2-chloro-1,6-dimethyl-8-hydroxymethyl-9-ergolene maleate]
Amphetamine group tox. (percent) [3]: 0% | Apomorphine hypothermia, difference of temperature change vs. apomorphine alone, 60 min [4]: +0.8 °C | Apomorphine hypothermia, difference of temperature change vs. apomorphine alone, 120 min [4]: +1.8 °C | ED50 [5]: 8.6 mg/kg | antihypoxic effect (in words) ([5]; mice p.o.): the antihypoxic effect comes into prominence | Catalepsy (percent) [1]: 0% | CAR inhibition (percent) ([6]; 20 mg/kg p.o.): 24%
